ChEMBL document CHEMBL1201862, “PubChem BioAssay data set” (2004)
The source made the active and inactive calls.

Legend:
CHO-K1 = experiment: (§1) Counterscreen for antagonists of the orexin 1 receptor (OX1R; HCRTR1): Homogeneous time resolved fluorescence (HTRF)-based cell-based dose response assay to identify antagonists of the parental CHO-K1 cell line. [Related pubchem assays (depositor defined):AID434989, AID435008, AID463079, AID485270, AID492963, AID492964, AID492965, AID493232, AID504699, AID504701]; type: functional; details: Cricetulus griseus
[1] = as §1, with “Fluorescence-based” for “Homogeneous time resolved fluorescence (HTRF)-based”, “cell-based high throughput” for “cell-based”, “CHO” for “CHO-K1”; type: functional
Orexin receptor type 2 [2] = target: T1, Orexin receptor type 2 (Homo sapiens, UniProt O43614); experiment: Counterscreen assay for antagonists of the orexin 1 receptor (OX1R; HCRTR1): Homogeneous Time Resolved Fluorescence (HTRF)-based cell-based dose response assay for antagonists of the orexin 2 receptor (OX2R; HCRTR2), run by assay provider.; type: functional
T1 sequence (O43614 whole entry): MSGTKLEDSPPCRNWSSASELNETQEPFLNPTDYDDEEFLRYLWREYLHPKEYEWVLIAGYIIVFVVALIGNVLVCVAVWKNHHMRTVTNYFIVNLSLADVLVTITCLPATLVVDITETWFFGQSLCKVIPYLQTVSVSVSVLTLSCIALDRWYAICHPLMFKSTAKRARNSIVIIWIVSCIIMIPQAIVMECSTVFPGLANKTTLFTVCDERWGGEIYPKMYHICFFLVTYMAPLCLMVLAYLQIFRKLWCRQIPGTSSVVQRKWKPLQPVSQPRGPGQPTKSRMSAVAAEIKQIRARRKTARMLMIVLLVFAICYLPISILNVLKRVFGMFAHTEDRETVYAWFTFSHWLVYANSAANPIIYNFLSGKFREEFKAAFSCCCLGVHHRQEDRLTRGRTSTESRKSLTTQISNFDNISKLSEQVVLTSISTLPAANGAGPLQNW

Orexin receptor type 2 [3] = target: T1, Orexin receptor type 2; experiment: Counterscreen assay for antagonists of the orexin 1 receptor (OX1R; HCRTR1): Fluorescence-based cell-based dose response assay for antagonists of the orexin 2 receptor (OX2R; HCRTR2), run by assay provider.; type: functional
[4] = target: T2, Orexin/Hypocretin receptor type 1 (Homo sapiens, UniProt O43613); experiment: (§2) Fluorescence-based cell-based high throughput dose response assay for antagonists of the orexin 1 receptor (OX1R; HCRTR1). [Related pubchem assays (depositor defined):AID434989, AID435008, AID463079, AID485270, AID492963, AID492964, AID492965, AID493232, AID504717, AID504718]; type: functional
T2 sequence (O43613 whole entry): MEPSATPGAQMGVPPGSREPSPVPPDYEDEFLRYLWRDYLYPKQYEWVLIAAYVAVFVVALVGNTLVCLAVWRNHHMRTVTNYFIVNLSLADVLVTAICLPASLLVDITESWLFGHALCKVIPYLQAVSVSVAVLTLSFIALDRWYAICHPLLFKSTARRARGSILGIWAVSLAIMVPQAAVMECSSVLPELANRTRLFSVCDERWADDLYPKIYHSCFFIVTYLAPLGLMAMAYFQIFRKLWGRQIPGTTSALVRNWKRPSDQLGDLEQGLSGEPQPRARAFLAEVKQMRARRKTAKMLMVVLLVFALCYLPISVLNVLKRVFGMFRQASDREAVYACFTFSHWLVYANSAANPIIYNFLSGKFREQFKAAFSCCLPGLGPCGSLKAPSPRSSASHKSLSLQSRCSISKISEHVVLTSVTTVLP

[5] = target: T2, Orexin/Hypocretin receptor type 1; experiment: as §2, with “Homogeneous Time Resolved Fluorescence (HTRF)-based” for “Fluorescence-based”; type: functional
[6] = target: T3, High affinity choline transporter 1 (Homo sapiens, UniProt Q9GZV3); experiment: human choline transporter potentiators, potency – cell-based, 10-point CRC, membrane potential dye, dose response (AID 602376); type: functional
T3 sequence (Q9GZV3 whole entry): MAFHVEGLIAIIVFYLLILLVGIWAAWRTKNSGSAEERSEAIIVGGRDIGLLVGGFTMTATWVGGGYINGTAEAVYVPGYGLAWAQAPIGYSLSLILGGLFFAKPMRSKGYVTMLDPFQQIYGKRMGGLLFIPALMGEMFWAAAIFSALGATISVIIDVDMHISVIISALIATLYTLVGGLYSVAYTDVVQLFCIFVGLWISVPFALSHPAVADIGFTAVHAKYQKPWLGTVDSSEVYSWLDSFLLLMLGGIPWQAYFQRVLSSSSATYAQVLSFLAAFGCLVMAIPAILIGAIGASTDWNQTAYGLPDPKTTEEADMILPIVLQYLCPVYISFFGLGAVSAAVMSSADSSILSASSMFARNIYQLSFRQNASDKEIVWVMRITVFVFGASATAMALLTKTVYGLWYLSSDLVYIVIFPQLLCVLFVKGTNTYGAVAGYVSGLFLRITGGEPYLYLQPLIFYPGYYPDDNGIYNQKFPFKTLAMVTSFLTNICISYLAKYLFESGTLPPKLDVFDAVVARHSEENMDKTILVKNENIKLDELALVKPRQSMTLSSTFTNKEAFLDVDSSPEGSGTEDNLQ

[7] = target: DNA dC->dU-editing enzyme APOBEC-3A (Homo sapiens, UniProt P31941); experiment: SAR analysis of small molecule inhibitors of APOBEC3A DNA Deaminase via a fluorescence-based single-stranded DNA deaminase assay.; type: functional; details: read-out: IC50_Mean
Sequence of DNA dC->dU-editing enzyme APOBEC-3A (P31941 whole entry): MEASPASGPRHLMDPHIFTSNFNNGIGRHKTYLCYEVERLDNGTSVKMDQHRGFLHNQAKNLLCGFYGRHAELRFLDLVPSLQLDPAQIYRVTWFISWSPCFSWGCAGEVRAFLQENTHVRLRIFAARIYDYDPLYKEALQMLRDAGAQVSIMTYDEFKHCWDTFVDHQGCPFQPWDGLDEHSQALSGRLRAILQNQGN

[8] = target: DNA dC->dU-editing enzyme APOBEC-3G (Homo sapiens, UniProt Q9HC16); experiment: inhibition of APOBEC3G ssDNA deamination – biochemical, fluorescence, single-stranded DNA substrate, SAR follow-up (AID 602136); type: functional; details: read-out: IC50_Mean
Sequence of DNA dC->dU-editing enzyme APOBEC-3G (Q9HC16 whole entry): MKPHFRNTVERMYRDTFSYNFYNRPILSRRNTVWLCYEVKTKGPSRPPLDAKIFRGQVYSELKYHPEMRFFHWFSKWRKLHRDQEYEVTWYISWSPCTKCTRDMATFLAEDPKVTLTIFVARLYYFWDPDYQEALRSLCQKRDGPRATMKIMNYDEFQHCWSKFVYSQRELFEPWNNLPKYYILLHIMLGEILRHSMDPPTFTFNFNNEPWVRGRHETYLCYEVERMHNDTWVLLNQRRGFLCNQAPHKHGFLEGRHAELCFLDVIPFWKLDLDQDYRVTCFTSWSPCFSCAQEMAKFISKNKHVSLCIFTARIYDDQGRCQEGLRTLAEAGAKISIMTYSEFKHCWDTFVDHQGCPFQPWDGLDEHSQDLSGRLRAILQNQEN

[9] = target: T4, Sentrin-specific protease 7 (Homo sapiens, UniProt Q9BQF6); experiment: inhibition of human SENP7 cleavage activity – biochemical, luminescence, SAR follow-up (AID 504497); type: functional
T4 sequence (Q9BQF6 whole entry): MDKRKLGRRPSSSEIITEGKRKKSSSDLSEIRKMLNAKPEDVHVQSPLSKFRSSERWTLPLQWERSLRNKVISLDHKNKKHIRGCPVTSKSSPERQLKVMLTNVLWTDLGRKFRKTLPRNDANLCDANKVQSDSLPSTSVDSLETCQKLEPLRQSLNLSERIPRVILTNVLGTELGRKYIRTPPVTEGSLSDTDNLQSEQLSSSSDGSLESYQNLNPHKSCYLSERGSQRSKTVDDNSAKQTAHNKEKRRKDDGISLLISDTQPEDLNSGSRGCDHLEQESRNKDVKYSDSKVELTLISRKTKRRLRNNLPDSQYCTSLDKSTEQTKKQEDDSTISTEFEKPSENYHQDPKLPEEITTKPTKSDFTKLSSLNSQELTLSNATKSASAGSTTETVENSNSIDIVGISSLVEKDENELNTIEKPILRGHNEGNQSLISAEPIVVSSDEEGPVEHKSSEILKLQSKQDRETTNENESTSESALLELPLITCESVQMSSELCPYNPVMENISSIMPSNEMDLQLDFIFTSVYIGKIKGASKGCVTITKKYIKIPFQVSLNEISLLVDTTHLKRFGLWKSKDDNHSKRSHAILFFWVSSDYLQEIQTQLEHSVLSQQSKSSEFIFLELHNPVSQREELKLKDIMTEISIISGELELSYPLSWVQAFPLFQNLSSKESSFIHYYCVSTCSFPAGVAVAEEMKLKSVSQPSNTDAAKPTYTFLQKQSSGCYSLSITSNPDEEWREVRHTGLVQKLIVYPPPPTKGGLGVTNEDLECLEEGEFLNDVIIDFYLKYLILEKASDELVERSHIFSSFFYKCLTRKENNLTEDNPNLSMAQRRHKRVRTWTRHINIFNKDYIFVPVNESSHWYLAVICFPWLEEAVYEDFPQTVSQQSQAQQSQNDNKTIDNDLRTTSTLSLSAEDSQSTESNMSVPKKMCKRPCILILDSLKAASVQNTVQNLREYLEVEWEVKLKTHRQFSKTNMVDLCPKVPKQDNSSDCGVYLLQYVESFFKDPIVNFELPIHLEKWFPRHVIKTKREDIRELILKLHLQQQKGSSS

Caspase-3 = target: T5, Caspase-3 (Homo sapiens, UniProt P42574); experiment: SAR Analysis of small molecule inhibitors of Sentrin-specific proteases (SENPs) using a Caspase-3 Selectivity assay. [Related pubchem assays (depositor defined):AID2540, AID2599, AID434973, AID489001]; type: functional
T5 sequence (P42574 whole entry): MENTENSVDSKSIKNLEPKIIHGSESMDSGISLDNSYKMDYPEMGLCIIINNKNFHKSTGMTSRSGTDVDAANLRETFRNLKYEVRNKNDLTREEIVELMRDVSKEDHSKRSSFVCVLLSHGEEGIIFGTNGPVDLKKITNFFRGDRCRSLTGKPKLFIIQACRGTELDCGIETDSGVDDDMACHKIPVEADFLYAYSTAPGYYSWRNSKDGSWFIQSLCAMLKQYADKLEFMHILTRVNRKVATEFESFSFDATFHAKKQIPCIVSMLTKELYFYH

[10] = target: T6, Sentrin-specific protease 8 (Homo sapiens, UniProt Q96LD8); experiment: inhibition of human SENP8 cleavage activity – biochemical, luminescence, SAR follow-up (AID 504501); type: functional
T6 sequence (Q96LD8 whole entry): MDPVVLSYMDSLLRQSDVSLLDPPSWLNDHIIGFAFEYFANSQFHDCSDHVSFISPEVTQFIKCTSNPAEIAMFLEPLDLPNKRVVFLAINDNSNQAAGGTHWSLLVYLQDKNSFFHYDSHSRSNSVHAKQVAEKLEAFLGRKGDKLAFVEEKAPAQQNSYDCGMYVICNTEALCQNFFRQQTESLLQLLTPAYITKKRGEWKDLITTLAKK

[11] = target: T7, Sentrin-specific protease 6 (Homo sapiens, UniProt Q9GZR1); experiment: SAR Analysis of small molecule inhibitors of Sentrin-specific protease 6 (SENP6) using a Luminescent assay. [Related pubchem assays (depositor defined):AID2582, AID2599]; type: functional
T7 sequence (Q9GZR1 whole entry): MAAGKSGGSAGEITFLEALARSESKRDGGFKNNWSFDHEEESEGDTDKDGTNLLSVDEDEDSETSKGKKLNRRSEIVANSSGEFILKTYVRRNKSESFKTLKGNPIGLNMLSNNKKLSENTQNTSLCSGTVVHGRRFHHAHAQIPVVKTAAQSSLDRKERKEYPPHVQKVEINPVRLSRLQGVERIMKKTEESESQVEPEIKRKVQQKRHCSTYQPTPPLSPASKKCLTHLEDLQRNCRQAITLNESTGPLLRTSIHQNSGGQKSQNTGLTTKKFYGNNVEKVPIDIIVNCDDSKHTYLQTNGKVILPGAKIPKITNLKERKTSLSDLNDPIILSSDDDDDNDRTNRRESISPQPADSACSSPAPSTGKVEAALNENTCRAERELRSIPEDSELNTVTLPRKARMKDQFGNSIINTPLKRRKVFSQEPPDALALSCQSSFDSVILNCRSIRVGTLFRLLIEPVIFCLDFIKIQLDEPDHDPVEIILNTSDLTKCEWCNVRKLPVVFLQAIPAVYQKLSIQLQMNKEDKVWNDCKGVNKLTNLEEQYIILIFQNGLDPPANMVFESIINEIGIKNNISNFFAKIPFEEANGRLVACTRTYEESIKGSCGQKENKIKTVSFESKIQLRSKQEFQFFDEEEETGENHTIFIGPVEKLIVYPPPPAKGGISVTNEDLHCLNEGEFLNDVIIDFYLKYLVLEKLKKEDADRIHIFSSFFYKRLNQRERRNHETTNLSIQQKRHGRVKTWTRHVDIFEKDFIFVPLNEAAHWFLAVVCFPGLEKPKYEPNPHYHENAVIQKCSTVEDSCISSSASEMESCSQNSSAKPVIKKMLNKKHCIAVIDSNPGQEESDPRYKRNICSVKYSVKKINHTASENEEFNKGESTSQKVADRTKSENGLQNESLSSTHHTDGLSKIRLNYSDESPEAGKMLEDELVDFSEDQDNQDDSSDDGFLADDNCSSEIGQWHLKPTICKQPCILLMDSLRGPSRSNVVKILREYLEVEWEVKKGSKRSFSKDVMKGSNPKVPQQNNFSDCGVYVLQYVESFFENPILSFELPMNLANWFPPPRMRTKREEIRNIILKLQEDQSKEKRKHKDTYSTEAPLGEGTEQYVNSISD

cells = type: functional
[12] = THP-1 cell cytotoxicity, dose response, cytotoxicity control for non-replicating M. tuberculosis project (AID 489025); type: functional
Melanocortin receptor 4 = Melanocortin receptor 4 (Homo sapiens, UniProt P32245); experiment: inhibitors of MC4R cAMP signaling – cell-based, TR-FRET, biased antagonists, dose response (AID 602298); type: functional;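 note: antagonist potency against agonist-stimulated cAMP production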
Sequence of Melanocortin receptor 4 (P32245 whole entry): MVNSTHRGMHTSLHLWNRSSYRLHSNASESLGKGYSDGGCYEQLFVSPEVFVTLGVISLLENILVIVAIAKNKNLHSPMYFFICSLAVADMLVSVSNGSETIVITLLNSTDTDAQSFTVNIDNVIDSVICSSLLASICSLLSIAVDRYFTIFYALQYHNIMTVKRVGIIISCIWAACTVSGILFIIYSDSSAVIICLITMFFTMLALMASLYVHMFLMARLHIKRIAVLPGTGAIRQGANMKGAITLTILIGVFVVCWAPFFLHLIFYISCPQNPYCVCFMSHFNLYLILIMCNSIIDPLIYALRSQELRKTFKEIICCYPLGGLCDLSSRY

[13] = cAMP pathway inhibition in counterscreen cell line – TR-FRET cAMP detection, counter-screen for MC4R biased antagonist project, dose response (AID 602305); type: functional, cell-based;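 note: U2OS cells stimulated with forskolin near its EC80 as the cAMP inducer; potency is for inhibition of forskolin-stimulated cAMP signaling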

## COc1cccc(/C=N/NC(=O)c2nnn(-c3nonc3N)c2CN(C)c2ccccc2)c1
CHO-K1
  IC50: > 66.2 µM (inactive)
[1]
  IC50: > 49.7 µM (inactive)
Orexin receptor type 2 [2]
  IC50: 5.39 µM (active)
Orexin receptor type 2 [3]
  IC50: > 88.8 µM (inactive)
[4]
  IC50: 5.95 µM (active)
[5]
  IC50: 0.513 µM (active)

## O=C(NCCCN1CCN(CCCNC(=O)c2cccc(Cl)c2)CC1)c1cccc(Cl)c1
[6]
  EC50: 9.44 µM (active)

## CS(=O)(=O)N1CCC(C(=O)Nc2cc(C(F)(F)F)ccc2N2CCOCC2)CC1
[7]
  IC50: > 99 µM (inactive)
[8]
  IC50: > 99 µM (inactive)

## O=C(OCC#CCSc1nnc(-c2cccc3ccccc23)o1)c1cccc2[nH]ccc12
CHO-K1
  IC50: > 66.2 µM (inactive)
[1]
  IC50: > 49.8 µM (inactive)
Orexin receptor type 2 [2]
  IC50: 1.39 µM (active)
Orexin receptor type 2 [3]
  IC50: > 88.8 µM (inactive)
[4]
  IC50: 14 µM (inactive)
[5]
  IC50: 0.506 µM (active)

## CCOc1ccc(C(=O)Nc2ccc3ccccc3c2)cc1Cl
[9]
  IC50: > 99 µM (inactive)
Caspase-3
  IC50: > 99 µM (inactive)
[10]
  IC50: > 99 µM (inactive)
[11]
  IC50: > 99 µM (inactive)

## c1coc(CNc2nc(N3CCCCC3)nc3ccccc23)c1
cells
  IC50: 6.64 µM (active)
[12]
  CC50: 19.6 µM (active)
[6]
  EC50: 1.79 µM (active)

## CN(c1ccc(OCC(=O)OCC(=O)Nc2ccc(Br)cc2)cc1)S(=O)(=O)c1cccs1
Melanocortin receptor 4
  IC50: > 64.6 µM (inactive)
[13]
  IC50: > 64.6 µM (inactive)
